{"source": "patent US6696484B2", "about": "“Method and compositions for regulation of 5-alpha reductase activity” (University of Chicago Office of Technology and Intellectual …, priority 1997, dated 2004)", "key": {"[1]": {"system": "LNCaP 104-S cells", "assay": "Proliferation of LNCaP 104-S cells in culture", "type": "cell-based, human", "details": "0.1 nM R1881 vs androgen-depleted media", "experimental": "Androgen-dependent LNCaP 104-S (passage 37) and androgen-independent LNCaP 104-R±sublines were isolated as described previously (Kokontis et al., 1994). The characteristics of these cells in vitro were confirmed before injection into nude mice. […] LNCaP 104-R2 cells grew in charcoal-treated media without additional androgen. Their proliferation was not stimulated but was repressed by 0.1 nM R1881. LNCaP 104-S cells were maintained in DMEM (Gibco) supplemented with 1 nM 5α-DHT and 10% FBS (Summit Biotechnology) and LNCaP 104-R2 cells were maintained in DMEM supplemented with 10% FBS treated with charcoal to remove steroid (Kokontis et al., 1994). PC-3 and MCF-7 cell lines were obtained from the American Type Culture Collection (Rockville, Md.), and were maintained in DMEM supplemented with 10% FBS."}, "[2]": {"system": "LNCaP 104-R2 tumors", "assay": "Expression of AR, c-myc and PSA by LNCaP 104-R2 tumors (ribonuclease protection assay, serum PSA immunoassay)", "type": "in vivo, BALB/c athymic (nude) mice", "details": "after 1 week of TP treatment", "text": "(§1) BALB/c athymic (nude) male (LNCaP, PC-3 cell lines) and female (MCF-7 cell line) mice (Taconic Inc., Germantown, N.Y.), 5 to 7 weeks-old, were used. Mice were housed in a pathogen-free environment, four to five mice per cage. Cages (filter top), bedding and water were autoclaved before use. Feed was irradiated Pico Lab Mouse Chow 20 5058 (Purina). All procedures involving animals were approved by the University of Chicago Institutional Animal Care and Use Committee. For the tumor growth studies, 10^6 cells in 0.25 ml of culture medium were mixed with 0.25 ml of Matrigel™ (Collaborative Research, Bedford, Mass.) and were injected subcutaneously into one or both flanks of the mice as described previously (Liao et al., 1995). Tumor size was measured weekly and tumor volume was calculated using the formula L×W×H×0.52 (Janek and Hartman, 1975). Bilateral orchiectomy and subcutaneous implantation or removal of pellets were performed under Metofane anesthesia. Blood samples were obtained by heart puncture or from the orbital plexus while mice were under anesthesia and analyzed for testosterone levels by radioimmunoassay or PSA levels by dual-site reactive enzymatic immunoassay (Tandem®-E PSA, Hybritech, San Diego, Calif.). […] All numerical data are expressed as the average of the values obtained from 4 to 6 tumors and the standard error. […]"}, "[3]": {"system": "LNCaP 104-S tumors", "assay": "Growth of LNCaP 104-S tumors in nude mice", "type": "in vivo, BALB/c athymic (nude) mice", "details": "TP implanted at the time of castration; from 299±27 (SE) mm^3; ±SE"}, "[4]": {"assay": "Biological effects of TP implants in nude mice (serum testosterone, seminal vesicle weight, body weight)", "type": "in vivo, BALB/c athymic (nude) mice", "details": "4th week after androgen implantation", "text": "as §1"}, "[5]": {"system": "PC-3 tumors", "assay": "Growth of PC-3 tumors in nude mice", "type": "in vivo, BALB/c athymic (nude) mice"}, "[6]": {"system": "MCF-7 tumors", "assay": "Growth of MCF-7 tumors in female nude mice", "type": "in vivo, BALB/c athymic (nude) mice"}, "[7]": {"system": "LNCaP 104-R2 tumors", "assay": "Growth of LNCaP 104-R2 tumors in castrated male nude mice", "type": "in vivo, BALB/c athymic (nude) mice"}}, "data": [{"compound": "C[C@]1(O)CC[C@H]2[C@@H]3CCC4=CC(=O)CCC4=C3C=C[C@@]21C", "note": "[R1881, 17 β-hydroxy-17 α-methyl-estra-4,9,11-trien-3-one]", "values": [{"measurement": "increase of proliferation of LNCaP 104-S cells", "setting": "[1]", "value": "10-13 fold"}]}, {"compound": "CCC(=O)O[C@H]1CC[C@H]2[C@@H]3CCC4=CC(=O)CC[C@]4(C)[C@H]3CC[C@]12C", "note": "[TP, testosterone propionate]", "values": [{"measurement": "increase of serum PSA", "setting": "[2]", "value": "more than 10 fold"}, {"measurement": "increase of the level of PSA mRNA in tumor samples", "setting": "[2]", "value": "more than 10 fold"}, {"measurement": "LNCaP 104-S tumor size 4 weeks after castration with TP implant", "setting": "[3]", "value": "965±166", "unit": "mm^3"}, {"measurement": "body weight of nude mice", "setting": "[4]", "value": "no loss"}, {"measurement": "increase of seminal vesicle weight", "setting": "[4]; vs castrates without TP", "value": "about 10 times"}, {"measurement": "effect on growth of AR negative PC-3 tumors", "setting": "[5]", "value": "did not affect"}, {"measurement": "effect on growth of MCF-7 tumors", "setting": "[6]", "value": "not affected"}, {"measurement": "LNCaP 104-R2 tumor size within 4 weeks after removal of TP", "setting": "[7]; TP implanted at 4th week, removed at 7th week, regrew from 96±26 (SE) mm^3", "value": "641±157", "unit": "mm^3"}, {"measurement": "LNCaP 104-R2 tumor size four weeks after TP implantation", "setting": "[7]; TP implanted at 7th week, from 884±64 (SE) mm^3", "value": "208±33", "unit": "mm^3"}]}]}
